Patent US20080070954A1, “Acylurea Connected And Sulfonylurea Connected Hydroxamates” (S*BIO PTE LTD., priority 2003, published 2008)

Legend:
[1] = tested on: acetylated histone H2B in Colo205 cells; experiment: Histone acetylation assay (western blot), histone H2B; type: cell-based, human; parameters: key: “Active” means accumulation of acetylated histone was observed when compared with control (without compound); conditions: Colo205 cells, 0.1, 1, 5 and 10 μM, 24 h
Procedure: (§1) A hallmark of histone deacetylase (HDAC) inhibition is the increase in the acetylation level of histones. Histone acetylation, including H3, H4, H2A and H2B can be detected by immuno-blotting (western-blot). Colo205 cells, approximately 1.5×10^6 cells/10 cm dish, were seeded in the previously described medium, cultivated for 24 h and subsequently treated with HDAC inhibitory agents at 0.1, 1, 5 and 10 μM final concentration. After 24 h, cells were harvested and lysed according to the instruction from Sigma Mammalian Cell Lysis Kit. The protein concentration was quantified using BCA method (Sigma Pte Ltd). The protein lysate was separated using 4-12% bis-tris SDS-PAGE gel (Invitrogen Pte Ltd) and was transferred onto PVDF membrane (BioRad Pte Ltd). The membrane was probed separately using primary antibody specific for acetylated H3, acetylated H4 or acetylated H2A (Upstate Pte Ltd). The detection antibody, goat anti rabbit antibody conjugated with Horse radish peroxidase (HRP) was used according to the manufacturer instruction (Pierce Pte Ltd). After removing the detection antibody from the membrane, an enhanced chemiluminescent substrate for detection of HRP (Pierce Pte Ltd) was added onto the membrane. […] The density of each band observed on the developed film could be analysed using UVP Bioimaging software (UVP, Inc, Upland, Calif.). […]

[2] = tested on: acetylated histone H4 in Colo205 cells; experiment: Histone acetylation assay (western blot), histone H4; type: cell-based, human; parameters: key: “Active” means accumulation of acetylated histone was observed when compared with control (without compound); conditions: Colo205 cells, 0.1, 1, 5 and 10 μM, 24 h
Procedure: (§2) A hallmark of histone deacetylase (HDAC) inhibition is the increase in the acetylation level of histones. Histone acetylation, including H3, H4, H2A and H2B can be detected by immuno-blotting (western-blot). Colo205 cells, approximately 1.5×10^6 cells/10 cm dish, were seeded in the previously described medium, cultivated for 24 h and subsequently treated with HDAC inhibitory agents at 0.1, 1, 5 and 10 μM final concentration. After 24 h, cells were harvested and lysed according to the instruction from Sigma Mammalian Cell Lysis Kit. The protein concentration was quantified using BCA method (Sigma Pte Ltd). The protein lysate was separated using 4-12% bis-tris SDS-PAGE gel (Invitrogen Pte Ltd) and was transferred onto PVDF membrane (BioRad Pte Ltd). The membrane was probed separately using primary antibody specific for acetylated H3, acetylated H4 or acetylated H2A (Upstate Pte Ltd). The detection antibody, goat anti rabbit antibody conjugated with Horse radish peroxidase (HRP) was used according to the manufacturer instruction (Pierce Pte Ltd). After removing the detection antibody from the membrane, an enhanced chemiluminescent substrate for detection of HRP (Pierce Pte Ltd) was added onto the membrane. After removing the substrate, the membrane was exposed to an X-ray film (Kodak) for 1 sec-20 mins. The X-ray film was developed using the X-ray film processor. The density of each band observed on the developed film could be analysed using UVP Bioimaging software (UVP, Inc, Upland, Calif.). The values were then normalized against the density of actin in the corresponding samples to obtain the expression of the protein.

[3] = tested on: acetylated histone H3 in Colo205 cells; experiment: Histone acetylation assay (western blot), histone H3; type: cell-based, human; parameters: key: “Active” means accumulation of acetylated histone was observed when compared with control (without compound); conditions: Colo205 cells, 0.1, 1, 5 and 10 μM, 24 h
Procedure: as §2

[4] = tested on: MDA-MB231 human breast cancer cell line; experiment: Cell-based proliferation assay for determination of GI50 values, MDA-MB231; conditions: MDA-MB231 cells, 96 h treatment, cyquant assay
Procedure: (§3) Human colon cancer cell lines (Colo205) and human breast cancer cell lines (MDA-MB435 and MDA-MB231) were obtained from ATCC. Colo205 cells were cultivated in RPMI 1640 containing 2 mM L-Glutamine, 5% FBS, 1.0 mM Na Pyruvate. MDA-MB231 cells were cultivated in RPMI 1640 containing 2 mM L-glutamine, 5% FBS. MDA-MB435 cells were cultivated in DMEM containing 2 mM L-Glutamine, 5% FBS. Colo205 cells were seeded in 96-wells plate at 5000 cells per well respectively. MDA-MB435 and MDA-MB231 cells were seeded in 96-wells plate at 6000 cells per well. The plates were incubated at 37° C., 5% CO2, for 24 h. Cells were treated with compounds at various concentrations for 96 h. Cell growth was then monitored using cyquant cell proliferation assay (Invitrogen Pte Ltd). Dose response curves were plotted to determine GI50 values for the compounds using XL-fit (ID Business Solution, Emeryville, Calif.).

[5] = target: T1, HDAC8 enzyme (recombinant GST-HDAC8) (Homo sapiens, UniProt Q9BY41); experiment: In vitro HDAC assay for determination of IC50 values (BIOMOL fluorescent-based), HDAC8; type: biochemical; conditions: 500 nM HDAC8 enzyme, 200 μM Flur de lys p53 peptide substrate, 2 h room temperature
T1 construct: Amplification of human HDAC1 and HDAC8 coding region from this cDNA library; made in house; host or cells: SF9 insect cells (baculovirus, pFASTBAC vector)
T1 sequence (Q9BY41 1-377): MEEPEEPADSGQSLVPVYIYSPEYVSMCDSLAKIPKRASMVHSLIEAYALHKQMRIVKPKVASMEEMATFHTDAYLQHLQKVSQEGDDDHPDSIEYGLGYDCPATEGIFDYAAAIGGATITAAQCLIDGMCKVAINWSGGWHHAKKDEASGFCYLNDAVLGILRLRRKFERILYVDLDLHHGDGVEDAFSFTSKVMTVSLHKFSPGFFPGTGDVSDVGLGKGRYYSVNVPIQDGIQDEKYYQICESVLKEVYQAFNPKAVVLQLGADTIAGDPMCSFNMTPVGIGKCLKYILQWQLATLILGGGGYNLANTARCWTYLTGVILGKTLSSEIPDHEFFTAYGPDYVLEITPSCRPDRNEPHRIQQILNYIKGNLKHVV
Procedure: Human cDNA library was prepared using cultured SW620 cells. Amplification of human HDAC1 and HDAC8 coding region from this cDNA library was cloned separately into the baculovirus expression pDEST20 vector and pFASTBAC vector respectively (GATEWAY Cloning Technology, Invitrogen Pte Ltd). […] Recombinant baculovirus was prepared using the Bac-To-Bac method following the manufacturer's instruction (Invitrogen Pte Ltd).
(§4) Expression of GST-HDAC1 or HTGST-HDAC8 was done by infecting SF9 cells (Invitrogen Pte Ltd) with pDEST20-HDAC1 or pFASTBAC-GST-HDAC8 baculovirus at MOI=1 for 48 h. Soluble cell lysate was incubated with pre-equilibrated Glutathione Sepharose 4B beads (Amersham) at 4° C. for 2 h. The beads were washed with PBS buffer for 3 times. The GST-HDAC1 protein or GST-HDAC8 protein was eluted by elution buffer containing 50 mM Tris, pH8.0, 150 mM NaCl, 1% Triton X-100 and 10 mM or 20 mM reduced Glutathione. The purified GST-HDAC1 protein or purified GST-HDAC8 protein was dialyzed with HDAC storage buffer containing 10 mM Tris, pH7.5, 100 mM NaCl and 3 mM MgCl2. 20% Glycerol was added to purified GST-HDAC1 protein or purified GST-HDAC8 before storage at −80° C.
The assay has been carried out in 96 well format and the BIOMOL fluorescent-based HDAC activity assay has been applied. […] Flur de lys Developer was added and the reaction was incubated for 10 min. Briefly, deacetylation of the substrate sensitizes it to the developer, which then generates a fluorophore. The fluorophore is excited with 360 nm light and the emitted light (460 nm) is detected on a fluorometric plate reader (Tecan Ultra Microplate detection system, Tecan Group Ltd.).
(§5) The analytical software, Prism 3.0® (GraphPad Software Inc) has been used to generate IC50 from a series of data.

[6] = tested on: acetylated histone H2A in Colo205 cells; experiment: Histone acetylation assay (western blot), histone H2A; type: cell-based, human; parameters: key: “Active” means accumulation of acetylated histone was observed when compared with control (without compound); conditions: Colo205 cells, 0.1, 1, 5 and 10 μM, 24 h
Procedure: as §1

[7] = target: T2, HDAC1 enzyme (recombinant GST-HDAC1) (Homo sapiens, UniProt Q13547); experiment: In vitro HDAC assay for determination of IC50 values (BIOMOL fluorescent-based), HDAC1; type: biochemical; conditions: 600 nM HDAC1 enzyme, 500 μM Flur de lys generic substrate, 2 h room temperature
T2 construct: Amplification of human HDAC1 and HDAC8 coding region from this cDNA library; made in house; host or cells: SF9 insect cells (baculovirus, pDEST20 vector)
Procedure: Human cDNA library was prepared using cultured SW620 cells. Amplification of human HDAC1 and HDAC8 coding region from this cDNA library was cloned separately into the baculovirus expression pDEST20 vector and pFASTBAC vector respectively (GATEWAY Cloning Technology, Invitrogen Pte Ltd). The pDEST20-HDAC1 and pFASTBAC-HTGST-HDAC8 constructs were confirmed by DNA sequencing. Recombinant baculovirus was prepared using the Bac-To-Bac method following the manufacturer's instruction (Invitrogen Pte Ltd). Baculovirus titer was determined by plaque assay to be about 10^8 PFU/ml.
as §4
The assay has been carried out in 96 well format and the BIOMOL fluorescent-based HDAC activity assay has been applied. The reaction composed of assay buffer, containing 25 mM Tris pH 7.5, 137 mM NaCl, 2.7 mM KCl, 1 mM MgCl2, 1 mg/ml BSA, tested compounds, 500 nM HDAC8 enzyme or 600 nM HDAC1 enzyme, 200 μM Flur de lys p53 peptide substrate for HDAC8 enzyme or 500 μM Flur de lys generic substrate for HDAC1 enzyme and subsequently was incubated at room temperature for 2 h. Flur de lys Developer was added and the reaction was incubated for 10 min. Briefly, deacetylation of the substrate sensitizes it to the developer, which then generates a fluorophore. The fluorophore is excited with 360 nm light and the emitted light (460 nm) is detected on a fluorometric plate reader (Tecan Ultra Microplate detection system, Tecan Group Ltd.).
as §5

[8] = tested on: Colo205 human colon cancer cell line; experiment: Cell-based proliferation assay for determination of GI50 values, Colo205; conditions: COLO 205, Colo205 cells, 96 h treatment, cyquant assay, read-out: Colo 205 Gl50
Procedure: as §3

[9] = tested on: MDA-MB435 human breast cancer cell line; experiment: Cell-based proliferation assay for determination of GI50 values, MDA-MB435; conditions: MDA-MB435 cells, 96 h treatment, cyquant assay
Procedure: as §3

[10] = tested on: Ramos Burkitt-lymphoma cells; experiment: Apoptosis assay (Annexin V / PI staining, FACS); type: cell-based; conditions: 48 hr after treatment with 10 μM
Description: In various therapies such as for proliferative disorders like cancer, the selective induction of apoptosis in proliferating cells such as tumor cells is one of the desirable approaches, and can be mediated by treatment with various anti-proliferative compounds [Blagosklonny M V, Oncogene, 23(16): 2967 (2004); Kaufmann and Earnshaw, Exp Cell Res. 256(1): 42-9 (2000)]. Programmed cell death or apoptosis is the cellular response to stress factors such as DNA damage introduced during conventional anti-cancer treatment. The concerted sequence of events during apoptosis, clearly differentiate this pathway from a non-coordinated form of cell death called necrosis. During the course of apoptosis, characteristic phenotypical cellular changes occur, which include the condensation of chromatin, the shrinkage of cells and finally the fragmentation of chromosomal DNA. One of the very early changes caused by apoptotic events occurs in the phospholipids bilayer of the plasma membrane. The phospholipid phosphatidylserine is translocated from the inner to the outer side of the plasma-membrane and, as a result, is exposed to the extracellular space. One way of detecting early apoptotic cells is to determine the amount of phosphatidyl-serine at the extracellular side of the plasma-membrane which is accomplished by the standard flow cytometric method of Annexin V staining. […]

T2 sequence (Q13547 whole entry): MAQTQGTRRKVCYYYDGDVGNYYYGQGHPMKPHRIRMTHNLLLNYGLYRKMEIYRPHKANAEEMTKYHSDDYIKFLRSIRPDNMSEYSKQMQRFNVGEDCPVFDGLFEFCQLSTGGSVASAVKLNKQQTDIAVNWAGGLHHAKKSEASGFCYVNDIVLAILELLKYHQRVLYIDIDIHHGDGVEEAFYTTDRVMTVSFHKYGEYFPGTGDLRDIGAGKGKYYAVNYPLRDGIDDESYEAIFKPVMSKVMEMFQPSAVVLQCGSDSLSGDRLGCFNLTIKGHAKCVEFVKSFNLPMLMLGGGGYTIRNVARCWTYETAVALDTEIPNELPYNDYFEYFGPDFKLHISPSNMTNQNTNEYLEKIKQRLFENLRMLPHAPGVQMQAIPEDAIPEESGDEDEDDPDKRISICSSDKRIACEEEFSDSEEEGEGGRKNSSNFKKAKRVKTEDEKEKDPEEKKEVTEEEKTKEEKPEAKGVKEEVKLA

SMILES | Histone 2B acetylation [1] | Histone 4 acetylation [2] | Histone 3 acetylation [3] | MDA-MB231 Gl50 [4] [µM] | IC50 [5] [nM] | Hisotne 2A acetylation [6] | IC50 [7] [nM] | GI50 [8] [nM] | MDA-MB435 Gl50 [9] [µM] | percentage of late apoptotic cells [10] [%]
O=C(CCCCCNC(=O)NC(=O)c1ccccc1)NO [Example 10, 6-(3-Benzoyl-ureido)-hexanoic acid hydroxyamide] | Active | Active | Active | 1.03 | 1070 | Active | 56 | 1890 | 1.79 | –
O=C(/C=C/c1ccc(CN(CCc2c[nH]c3ccccc23)C(=O)NC(=O)c2ccccc2)cc1)NO [Example 11, 3-(4-{3-Benzoyl-1-[2-(1H-indol-3-yl)-ethyl]-ureidomethyl}phenyl)-N-hydroxy-acrylamide] | Active | Active | Active | 0.26 | 210 | Active | 4 | 260 | 0.62 | –
Cc1ccc(S(=O)(=O)NC(=O)Nc2cccc(/C=C/C(=O)NO)c2)cc1 [Example 3, N-Hydroxy-3-{3-[3-(4-methylbenzenesulfonyl)ureido]-phenyl}-acrylamide] | – | – | – | – | 22 | – | 1540 | – | – | 84
